Laboratory results: ChEMBL document CHEMBL4699511, “Cedrol, a Sesquiterpene Alcohol, Enhances the Anticancer Efficacy of Temozolomide in Attenuating Drug Resistance via Regulation of the DNA Damage Response and MGMT Expression” (J Nat Prod, 2020)
Activity calls are given as the source filed them. No cut-off for these calls is given here.

Experiments:
DBTRG-05MG [1] = assay: Cytotoxicity against human DBTRG-05MG cells assessed as reduction in cell viability after 24 hrs by MTT assay; type: functional, cell-based
[2] = Cytotoxicity against rat CTX TNA2 cells assessed as reduction in cell viability after 48 hrs by MTT assay; type: cell-based; details: CTX TNA2, 48 h
DBTRG-05MG [3] = assay: Induction of cell cycle arrest in human DBTRG-05MG cells assessed as accumulation at S phase at 206 uM after 48 hrs by propidium iodide staining based flow cytometric analysis (reference value: 22.76 +/- 1.56%); type: functional
RG2 [4] = assay: Cytotoxicity against rat RG2 cells assessed as reduction in cell viability after 24 hrs by MTT assay; type: functional, cell-based; details: for IC50: RG2, 24 h
[5] = Cytotoxicity against rat CTX TNA2 cells assessed as reduction in cell viability after 24 hrs by MTT assay; type: cell-based; details: CTX TNA2, 24 h
[6] = Effect on p38 expression in human DBTRG-05MG cells at 206 uM after 48 hrs by Western blot analysis (reference value: 1); type: functional
DBTRG-05MG [7] = assay: Cytotoxicity against human DBTRG-05MG cells assessed as reduction in cell viability after 72 hrs by MTT assay; type: functional, cell-based
[8] = biological target: Serine/threonine-protein kinase AKT (Homo sapiens) (UniProt P31751+Q9Y243+P31749); assay: Inhibition of AKT phosphorylation at S473 residues in human DBTRG-05MG cells at 206 uM after 48 hrs by Western blot analysis; type: cell-based
Chain of Serine/threonine-protein kinase AKT (Homo sapiens) (P31749 whole entry, looked up): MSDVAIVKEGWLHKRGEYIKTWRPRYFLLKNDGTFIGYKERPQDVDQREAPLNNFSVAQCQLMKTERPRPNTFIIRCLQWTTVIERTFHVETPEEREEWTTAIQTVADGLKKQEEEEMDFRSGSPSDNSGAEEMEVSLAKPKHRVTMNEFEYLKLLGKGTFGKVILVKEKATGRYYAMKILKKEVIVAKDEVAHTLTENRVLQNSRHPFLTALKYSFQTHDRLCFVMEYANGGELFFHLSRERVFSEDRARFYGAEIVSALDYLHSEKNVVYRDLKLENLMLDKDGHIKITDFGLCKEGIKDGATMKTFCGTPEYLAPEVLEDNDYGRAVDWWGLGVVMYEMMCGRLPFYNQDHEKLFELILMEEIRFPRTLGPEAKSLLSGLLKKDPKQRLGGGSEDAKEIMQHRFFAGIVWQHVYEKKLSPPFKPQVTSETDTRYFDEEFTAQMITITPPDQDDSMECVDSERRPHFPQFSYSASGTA
Chain of Serine/threonine-protein kinase AKT (Homo sapiens) (P31751 whole entry, looked up): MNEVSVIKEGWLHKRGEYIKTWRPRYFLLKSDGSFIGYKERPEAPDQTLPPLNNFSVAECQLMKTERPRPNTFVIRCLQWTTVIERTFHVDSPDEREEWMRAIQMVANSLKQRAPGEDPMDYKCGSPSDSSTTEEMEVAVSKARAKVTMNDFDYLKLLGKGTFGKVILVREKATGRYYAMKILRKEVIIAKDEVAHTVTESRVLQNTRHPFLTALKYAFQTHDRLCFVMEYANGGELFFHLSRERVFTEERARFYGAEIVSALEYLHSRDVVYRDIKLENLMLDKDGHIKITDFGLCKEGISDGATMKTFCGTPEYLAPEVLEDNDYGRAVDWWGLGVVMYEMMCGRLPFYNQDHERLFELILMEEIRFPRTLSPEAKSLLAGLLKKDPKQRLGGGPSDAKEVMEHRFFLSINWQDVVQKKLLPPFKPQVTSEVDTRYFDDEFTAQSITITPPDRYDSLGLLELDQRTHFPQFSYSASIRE
Chain of Serine/threonine-protein kinase AKT (Homo sapiens) (Q9Y243 whole entry, looked up): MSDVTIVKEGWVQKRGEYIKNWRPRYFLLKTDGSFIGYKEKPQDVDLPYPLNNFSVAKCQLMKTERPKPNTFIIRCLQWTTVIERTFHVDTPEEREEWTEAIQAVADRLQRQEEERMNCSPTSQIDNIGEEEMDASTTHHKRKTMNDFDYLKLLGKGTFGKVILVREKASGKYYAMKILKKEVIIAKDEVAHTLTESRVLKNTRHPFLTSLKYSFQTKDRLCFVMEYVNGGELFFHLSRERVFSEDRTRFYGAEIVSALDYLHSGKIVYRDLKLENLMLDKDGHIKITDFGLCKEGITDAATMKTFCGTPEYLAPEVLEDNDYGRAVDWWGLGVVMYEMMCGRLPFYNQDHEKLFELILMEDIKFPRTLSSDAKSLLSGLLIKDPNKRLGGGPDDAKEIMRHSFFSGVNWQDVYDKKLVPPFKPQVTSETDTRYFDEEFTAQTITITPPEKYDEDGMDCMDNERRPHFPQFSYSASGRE

DBTRG-05MG [9] = assay: Antitumour activity against human DBTRG-05MG cells xenografted in BALB/c nude mouse assessed as reduction in tumour growth at 5 mg/kg, ip for 5 days and measured every 2 days; type: functional, organism-based; details: time 5.0 day
DBTRG-05MG [10] = assay: Induction of apoptosis in human DBTRG-05MG cells assessed as cleaved caspace-3 expression at 206 uM after 48 hrs by Western blot analysis (reference value: 1); type: functional
RG2 [11] = assay: Cytotoxicity against rat RG2 cells assessed as reduction in cell viability after 48 hrs by MTT assay; type: functional, cell-based; details: for IC50: RG2, 48 h
DBTRG-05MG [12] = assay: Cytotoxicity against human DBTRG-05MG cells assessed as reduction in cell viability after 48 hrs by MTT assay; type: functional, cell-based
DBTRG-05MG [13] = assay: Induction of cell cycle arrest in human DBTRG-05MG cells assessed as accumulation at G2/M phase at 206 uM after 12 hrs by propidium iodide staining based flow cytometric analysis (reference value: 30.08 +/- 0.1%); type: functional
RG2 [14] = assay: Cytotoxicity against rat RG2 cells assessed as reduction in cell viability after 72 hrs by MTT assay; type: functional, cell-based; details: for IC50: RG2, 72 h
DBTRG-05MG [15] = assay: Induction of cell cycle arrest in human DBTRG-05MG cells assessed as accumulation at G0/G1 phase at 206 uM after 24 hrs by propidium iodide staining based flow cytometric analysis (reference value: 47.16 +/- 1.55%); type: functional
[16] = Cytotoxicity against rat CTX TNA2 cells assessed as reduction in cell viability after 72 hrs by MTT assay; type: cell-based; details: CTX TNA2, 72 h
RG2 [17] = assay: Induction of cell cycle arrest in rat RG2 cells assessed as accumulation at G2/M phase at 206 uM after 24 hrs by propidium iodide staining based flow cytometric analysis (reference value: 20.04 +/- 0.55%); type: functional
RG2 [18] = assay: Induction of DNA damage in rat RG2 cells assessed as H2A.X phosphorylation at ser139 at 112.4 uM after 48 hrs in presence of TMZ by Western blot analysis (reference value: 1); type: functional
RG2 [19] = assay: Synergistic cytotoxicity against rat RG2 cells assessed as combination index at 134.9 uM after 48 hrs in presence of 103 uM TMZ by MTT assay; type: functional
DBTRG-05MG [20] = assay: Induction of DNA damage in human DBTRG-05MG cells assessed as Chk2 phosphorylation at Thr68 residues at 112.4 uM after 48 hrs in presence of TMZ by Western blot analysis (reference value: 1); type: functional
RG2 [21] = assay: Induction of apoptosis in rat RG2 cells assessed as cleaved caspace-9 expression at 112.4 uM after 48 hrs in presence of TMZ by Western blot analysis (reference value: 1); type: functional
RG2 [22] = assay: Synergistic cytotoxicity against rat RG2 cells assessed as synergistic effect index at 134.9 uM after 48 hrs in presence of 206 uM TMZ by MTT assay; type: functional
[23] = Effect on AKT expression in human DBTRG-05MG cells at 112.4uM after 48 hrs in presence of TMZ by Western blot analysis (reference value: 1); type: functional
DBTRG-05MG [24] = assay: Induction of cell cycle arrest in human DBTRG-05MG cells assessed as CyclinA expression at 112.4 uM after 48 hrs in presence of TMZ by Western blot analysis (reference value: 1); type: functional
[25] = Effect on JNK expression in human DBTRG-05MG cells at 112.4uM after 48 hrs by Western blot analysis (reference value: 1); type: functional
DBTRG-05MG [26] = assay: Synergistic cytotoxicity against human DBTRG-05MG cells assessed as combination index at 134.9 uM after 48 hrs in presence of 515.1 uM TMZ by MTT assay; type: functional
DBTRG-05MG [27] = assay: Induction of cell cycle arrest in human DBTRG-05MG cells assessed as CDK2 expression at 112.4uM after 48 hrs by Western blot analysis (reference value: 1); type: functional
RG2 [28] = assay: Induction of cell cycle arrest in rat RG2 cells assessed as CDK4 expression at 112.4 uM after 48 hrs in presence of TMZ by Western blot analysis (reference value: 1); type: functional
DBTRG-05MG [29] = assay: Synergistic cytotoxicity against human DBTRG-05MG cells assessed as synergistic effect index at 89.9 uM after 48 hrs in presence of 309 uM TMZ by MTT assay; type: functional
RG2 [30] = assay: Induction of apoptosis in rat RG2 cells assessed as increase in chromatin condensation at 112.4 uM after 48 hrs in presence of TMZ by TUNEL assay; type: functional, cell-based
RG2 [31] = assay: Inhibition of AKT phosphorylation at S473 residues in rat RG2 cells at 112.4uM after 48 hrs by Western blot analysis; type: cell-based
DBTRG-05MG [32] = assay: Induction of cell cycle arrest in human DBTRG-05MG cells assessed as accumulation at G2/M phase at 112.4 uM after 48 hrs by propidium iodide staining based flow cytometric analysis (reference value: 30.08 +/- 0.1%); type: functional
DBTRG-05MG [33] = assay: Synergistic cytotoxicity against human DBTRG-05MG cells assessed as synergistic effect index at 112.4 uM after 48 hrs in presence of 515.1 uM TMZ by MTT assay; type: functional
RG2 [34] = assay: Inhibition of JNK phosphorylation at Thr183/Tyr185 residues in rat RG2 cells at 112.4uM after 48 hrs by Western blot analysis (reference value: 1); type: cell-based
RG2 [35] = assay: Induction of cell cycle arrest in rat RG2 cells assessed as CyclinA expression at 112.4 uM after 48 hrs in presence of TMZ by Western blot analysis (reference value: 1); type: functional
RG2 [36] = assay: Synergistic cytotoxicity against rat RG2 cells assessed as combination index at 89.9 uM after 48 hrs in presence of 309 uM TMZ by MTT assay; type: functional

Work on `Cn1nnc2c(C(N)=O)ncn2c1=O` [TEMOZOLOMIDE] yielded an IC50 (DBTRG-05MG [1]) of 974 µM, an IC50 [2] of 487 µM and an Activity (DBTRG-05MG [3]) of 23.42%. The IC50 (RG2 [4]) was 962 µM, the IC50 [5] was 666 µM and the “fold change (FC)” value [6] was 0.9. The IC50 (DBTRG-05MG [7]) was 119 µM, the fold change (FC) [8] was 0.7 and the Activity (DBTRG-05MG [9]) was “Active”. For the same compound, the “fold change (FC)” value (DBTRG-05MG [10]) was 3.3, the IC50 (RG2 [11]) was 348 µM and the IC50 (DBTRG-05MG [12]) was 355 µM. For the same compound, the Activity (DBTRG-05MG [13]) was 35.43%, the IC50 (RG2 [14]) was 107 µM and the Activity (DBTRG-05MG [15]) was 31.03%. It also gave an IC50 [16] of 431 µM and an Activity (RG2 [17]) of 31.81%.

With `C[C@@H]1CC[C@H]2C(C)(C)[C@H]3C[C@@]12CC[C@@]3(C)O` [CEDROL] the “fold change (FC)” value (RG2 [18]) was 1.3, the Activity (DBTRG-05MG [1]) was “Dose-dependent effect” and the IC50 (DBTRG-05MG [1]) was 119 µM. For the same compound, the IC50 [2] was 280 µM, the CI (RG2 [19]) was 0.83 and the “fold change (FC)” value (DBTRG-05MG [20]) was 2.6. For the same compound, the “fold change (FC)” value (RG2 [21]) was 1.8, the Activity_index (RG2 [22]) was 0.91 and the “fold change (FC)” value [23] was 0.6. The “fold change (FC)” value (DBTRG-05MG [24]) was 1.6, the Activity (RG2 [4]) was “Dose-dependent effect” and the IC50 (RG2 [4]) was 107 µM. For the same compound, the IC50 [5] was 238 µM, the “fold change (FC)” value [25] was 0.8 and the Activity (DBTRG-05MG [7]) was “Dose-dependent effect”. For the same compound, the IC50 (DBTRG-05MG [7]) was 107 µM, the CI (DBTRG-05MG [26]) was 0.68 and the “fold change (FC)” value (DBTRG-05MG [27]) was 0.7. The Activity (RG2 [11]) was “Dose-dependent effect”, the IC50 (RG2 [11]) was 93.3 µM and the “fold change (FC)” value (RG2 [28]) was 0.5. The Activity (DBTRG-05MG [12]) was “Dose-dependent effect”, the IC50 (DBTRG-05MG [12]) was 102 µM and the Activity_index (DBTRG-05MG [29]) was 0.75. The Activity (RG2 [30]) was “Active”, the fold change (FC) (RG2 [31]) was 0.8 and the Activity (DBTRG-05MG [32]) was 28.83%. For the same compound, the Activity_index (DBTRG-05MG [33]) was 0.85, the fold change (FC) (RG2 [34]) was 0.7 and the “fold change (FC)” value (RG2 [35]) was 0.7. For the same compound, the Activity (RG2 [14]) was “Dose-dependent effect”, the IC50 (RG2 [14]) was 89.2 µM and the CI (RG2 [36]) was 1.04. The IC50 [16] was 255 µM.
